Patent publication US20170037028A1 (BAYER PHARMA AKTIENGESELLSCHAFT, priority 2013, published 2017)

target: T1, GLUT1 (Homo sapiens, UniProt P11166); assay: Indirect measurement of GLUT1 activity by quantification of intracellular ATP levels (glucose induced ATP increase); assay type: cell-based; set-up: endogenous in cells; host or cells: DLD1 or CHO-K1; settings: DLD1 cells; 0.1 mM glucose, 1 μM Rotenone, 15 min; CellTiter-Glo ATP readout; IC50 values standardized to cytochalasin B IC50 values; read-out: IC50 regarding glucose induced ATP increase (GLUT1 inhibition)
T1 sequence (P11166 1-492): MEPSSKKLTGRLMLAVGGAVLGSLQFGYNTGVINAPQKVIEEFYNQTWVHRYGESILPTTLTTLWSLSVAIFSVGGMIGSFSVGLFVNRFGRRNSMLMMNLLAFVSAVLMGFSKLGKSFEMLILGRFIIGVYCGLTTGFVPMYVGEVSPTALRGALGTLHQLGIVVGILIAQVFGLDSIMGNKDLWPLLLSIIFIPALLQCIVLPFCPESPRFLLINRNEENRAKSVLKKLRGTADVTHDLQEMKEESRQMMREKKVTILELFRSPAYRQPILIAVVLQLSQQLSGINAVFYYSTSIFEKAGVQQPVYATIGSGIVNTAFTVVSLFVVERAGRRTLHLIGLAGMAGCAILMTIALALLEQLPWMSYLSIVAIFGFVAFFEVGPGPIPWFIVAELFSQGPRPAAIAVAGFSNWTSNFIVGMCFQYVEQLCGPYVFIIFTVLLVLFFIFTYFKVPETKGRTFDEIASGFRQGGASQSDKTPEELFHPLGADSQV
Procedure, shortened: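 DLD1 or CHO-K1 cells were starved overnight in glucose-free medium with 1% FCS, then combined with an oxidative phosphorylation inhibitor. GLUT1 activity was read as glucose-induced ATP increase, GLUT2 as fructose-induced. Intracellular ATP was quantified by CellTiter-Glo luminescence.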

Compound	IC50 [nM]
Cc1nn(CC2CCOCC2)c(C)c1NC(=O)c1cc(C(F)(F)F)nc2ccc(Br)cc12 [Example 1114]	59.2

same assay, conditions: read-out: IC50 regarding glucose induced ATP increase (GLUT1 inhibition)

IC50 [nM]	Compound
35.5	CCc1nn(Cc2ccc(C#N)cc2)c(CC)c1NC(=O)c1cc(C(N)=O)nc2cc(F)ccc12 [Example 312, N^4-[1-(4-cyanobenzyl)-3,5-diethyl-1H-pyrazol-4-yl]-7-fluoroquinoline-2,4-dicarboxamide]
3	COc1ccc(Cn2nc(C(F)(F)F)c(NC(=O)c3cc(C(F)(F)F)nc4ccc(Br)cc34)c2C)cn1 [Example 1027]
598	Cc1nn(Cc2ccc(C(=O)N3CCN(C)CC3)cc2)c(C)c1NC(=O)c1cc(C(F)(F)F)nc2ccc(Br)cc12 [Example 1212]
146	COC(=O)c1coc(Cn2nc(C(F)(F)F)c(NC(=O)c3cc(C(N)=O)nc4ccccc34)c2C)n1 [Example 1680]
16.6	Cc1c(NC(=O)c2cc(C(N)=O)nc3cccc(F)c23)c(C(F)(F)F)nn1Cc1ccc(C(F)(F)F)cc1 [Example 1591]
6.6	Cc1nn(CCOc2ccc(C#N)cc2)c(C)c1NC(=O)c1cc(C(N)=O)nc2cc(F)c(Cl)cc12 [Example 294, 6-chloro-N^4-{1-[2-(4-cyanophenoxy)ethyl]-3,5-dimethyl-1H-pyrazol-4-yl}-7-fluoroquinoline-2,4-dicarboxamide]
277	Cc1nn(Cc2cccc(S(C)(=O)=O)c2)c(C)c1NC(=O)c1cc(C(N)=O)nc2cc(F)ccc12 [Example 1640]
140	COC(=O)N1CCC(Cn2nc(C)c(NC(=O)c3cc(C(N)=O)nc4ccccc34)c2C)CC1 [Example 1155]
9.8	COc1cccc(Cn2nc(C)c(NC(=O)c3cc(C(N)=O)nc4cc(F)ccc34)c2C)c1 [Example 1459]
0.5	Cc1cc(Cn2nc(C)c(NC(=O)c3cc(C(N)=O)nc4cccc(F)c34)c2C)ccc1C#N [Example 1697]
8150	Cc1nn(Cc2cc(F)ccc2F)c(C)c1NC(=O)c1cc(C(F)(F)F)nc2c(Cl)cc(Cl)cc12 [Example 1295]
25	Cc1nn(Cc2ccc(F)cc2)c(C)c1NC(=O)c1cc(N(C)C)nc2ccccc12 [Example 163, 2-(dimethylamino)-N-[1-(4-fluorobenzyl)-3,5-dimethyl-1H-pyrazol-4-yl]quinoline-4-carboxamide]
2530	Cc1c(NC(=O)c2cc(C(=O)NS(C)(=O)=O)nc3ccccc23)c(C(F)(F)F)nn1Cc1ccc(C#N)cc1 [Example 426, N^4-[1-(4-cyanobenzyl)-5-methyl-3-(trifluoromethyl)-1H-pyrazol-4-yl]-N^2-(methylsulfonyl)quinoline-2,4-dicarboxamide]
817	Cc1nn(Cc2ccc(F)cc2)c(C)c1NC(=O)c1cc(C(=O)N(C)C)nc2ccccc12 [Example 209, N^4-[1-(4-fluorobenzyl)-3,5-dimethyl-1H-pyrazol-4-yl]-N^2,N^2-dimethylquinoline-2,4-dicarboxamide]
502	Cc1nn(Cc2ccc(C(=O)NCc3cccc(O)c3)cc2)c(C)c1NC(=O)c1cc(C(F)(F)F)nc2ccc(Br)cc12 [Example 1209]
6	Cc1nn(Cc2ccc(F)cc2F)c(C)c1NC(=O)c1cc(C(N)=O)nc2cc(F)c(Cl)cc12 [Example 1489]
8.5	COc1cccc(Cn2nc(C)c(NC(=O)c3cc(C(N)=O)nc4cccc(F)c34)c2C)c1 [Example 1451]
5.5	Cc1nn(Cc2c(F)cc(C#N)cc2F)c(C)c1NC(=O)c1cc(C(N)=O)nc2cc(F)ccc12 [Example 390, N^4-[1-(4-cyano-2,6-difluorobenzyl)-3,5-dimethyl-1H-pyrazol-4-yl]-7-fluoroquinoline-2,4-dicarboxamide]
2.9	Cc1c(NC(=O)c2cc(C(N)=O)nc3cc(F)c(Cl)cc23)c(C(F)(F)F)nn1Cc1ccc(C#N)s1 [Example 421, 6-chloro-N^4-{1-[(5-cyano-2-thienyl)methyl]-5-methyl-3-(trifluoromethyl)-1H-pyrazol-4-yl}-7-fluoroquinoline-2,4-dicarboxamide]

IC50 [nM]	Compound
2.1	Cc1cc(Cn2nc(C)c(NC(=O)c3cc(C(N)=O)nc4cc(F)c(Cl)cc34)c2C)no1 [Example 412, 6-chloro-N^4-{3,5-dimethyl-1-[(5-methyl-1,2-oxazol-3-yl)methyl]-1H-pyrazol-4-yl}-7-fluoroquinoline-2,4-dicarboxamide]
6.1	Cc1nn(Cc2ccc(F)c(F)c2)c(C)c1NC(=O)c1cc(C2CC2)nc2ccc(Cl)cc12 [Example 145, 6-chloro-2-cyclopropyl-N-[1-(3,4-difluorobenzyl)-3,5-dimethyl-1H-pyrazol-4-yl]quinoline-4-carboxamide]
3.4	Cc1nn(Cc2ccncc2C#N)c(C)c1NC(=O)c1cc(C(N)=O)nc2cc(F)c(Cl)cc12 [Example 285, 6-chloro-N^4-{1-[(3-cyanopyridin-4-yl)methyl]-3,5-dimethyl-1H-pyrazol-4-yl}-7-fluoroquinoline-2,4-dicarboxamide]
408	Cc1c(NC(=O)c2cc(C(F)(F)F)nc3ccc(Br)cc23)c(C(F)(F)F)nn1Cc1ccc(C(=O)N2CCOCC2)cn1 [Example 1200]
1530	Cc1nn(CC2CCNCC2)c(C)c1NC(=O)c1cc(C(N)=O)nc2ccccc12 [Example 1241]
245	Cc1c(NC(=O)c2cc(C(=O)NCCO)nc3cc(F)ccc23)c(C(F)(F)F)nn1Cc1ccc(C#N)cc1 [Example 1403]
23.6	Cc1c(NC(=O)c2cc(C(N)=O)nc3cc(F)ccc23)c(C(F)(F)F)nn1Cc1ccc(C#N)cc1O [Example 1668]
24.6	Cc1nn(Cc2ccc(C(=O)N3CCC3)cc2)c(C)c1NC(=O)c1cc(C(N)=O)nc2cc(F)ccc12 [Example 1419]
164	Cc1nn(Cc2ccncn2)c(C)c1NC(=O)c1cc(C(N)=O)nc2ccccc12 [Example 1417]
250	Cc1cccnc1Cn1nc(C)c(NC(=O)c2cc(C(F)(F)F)nc3c(Cl)cc(Cl)cc23)c1C [Example 82, 6,8-dichloro-N-{3,5-dimethyl-1-[(3-methylpyridin-2-yl)methyl]-1H-pyrazol-4-yl}-2-(trifluoromethyl)quinoline-4-carboxamide]
22.5	COc1cc(C(=O)Nc2c(C(F)(F)F)nn(Cc3ccc(C#N)cc3)c2C)c2ccccc2n1 [Example 1075]
3.7	Cc1nn(C(C)CCc2ccc(F)cc2)c(C)c1NC(=O)c1cc(C(N)=O)nc2cc(F)c(Cl)cc12 (racemic) [Example 1380]
30	Cc1nn(Cc2ccc(F)cc2)c(C)c1NC(=O)c1cc(C(F)(F)F)nc2cc(F)c(F)cc12 [Example 39, 6,7-difluoro-N-[1-(4-fluorobenzyl)-3,5-dimethyl-1H-pyrazol-4-yl]-2-(trifluoromethyl)quinoline-4-carboxamide]
5.7	Cc1c(NC(=O)c2cc(C(N)=O)nc3ccc(Br)cc23)c(C(F)(F)F)nn1Cc1ccc(F)c(F)c1 [Example 1445]
50.1	CC(=O)c1cccc(Cn2nc(C(F)(F)F)c(NC(=O)c3cc(C(N)=O)nc4ccccc34)c2C)c1 [Example 1622]
1.9	COc1cccc(Cn2nc(C(F)(F)F)c(NC(=O)c3cc(C(N)=O)nc4cc(F)c(Cl)cc34)c2C)c1 [Example 1446]
2.4	CC(=O)c1ccc(Cn2nc(C(F)(F)F)c(NC(=O)c3cc(C(N)=O)nc4cccc(F)c34)c2C)cc1 [Example 1606]
12.6	Cc1c(NC(=O)c2cc(C(N)=O)nc3cccc(F)c23)c(C(F)(F)F)nn1Cc1ncccc1C#N [Example 1395]
